We go through 16 molecules from PubChem BioAssay AID2060603 (Molecular Pharmacology Branch, DTP, NCI, 2025).

Several values for one entry are separate records, joined by “and”; a condition that tells them apart may be missing. Equal entries are not always repeated.

By viability, T/C is commonly meant the result in the treated group divided by that in the control group, in per cent. For orientation: IC50 means the point on the concentration scale where inhibition reaches its midpoint.

The subject of this assay is 422866-222-R5-J1-PDC spheroid viability. The experiment in a line: Anticancer human tumor 422866-222-R5-J1-PDC patient-derived pancreatic adenocarcinoma cell line growth inhibition [CLK]. Particulars: spheroids with HUVEC and MSC; for viability, T/C: stronger effect = lower value. The source says:
A high-throughput screen of multi-cell type tumor spheroids was designed to identify active combinations of […] and targeted small molecules. Complex spheroids include a stromal component modeled by human endothelial cells (HUVEC) and fibroblasts modeled by human mesenchymal stem cells (MSCs). The concentration ranges selected for each drug and investigational agent were based upon clinically achievable concentrations if the clinical Cmax of the agent was known.
Compounds. The drugs and investigational agents: cirtuvivint (SM08502; NSC835563), CC-671 (NSC850746), vemurafenib (NSC761431), tapotoclax (NSC804041), sotorasib (NSC818433), adagrasib (NSC831453), MRTX-1133 (NSC836407), BAY2416964 (NSC825713), copanlisib (NSC816437), inavolisib (NSC800729), abemaciclib (NSC768073), osimertinib (NSC779217), entinostat (NSC756642), eltanexor (KPT-8602, NSC794443), venetoclax (NSC766270), ceralasertib (NSC777638), bortezomib (NSC756655), olaparib (NSC753686), talazoparib (NSC767125), alisertib (NSC759677), peposertib (NSC802822), gemcitabine (NSC613327), 5-fluorouracil (NSC19893), SN-38 (NSC673596), oxaliplatin (NSC266046), paclitaxel (NSC125973), and doxorubicin (NSC123127), were obtained from the National Cancer Institute (NCI) Developmental Therapeutics Program Chemical Repository. The FDA-approved anticancer drug set is available from the Developmental Therapeutics Program at https://dtp.cancer.gov/organization/dscb/obtaining/available plates.htm. […] The stock solutions were prepared in dimethyl sulfoxide (DMSO, Sigma-Aldrich, St. Louis, MO, cat. D2650), except for the platinum complexes which were prepared in saline (Quality Biological, Gaithersburg, MD, cat. 114-055-101), at 800-fold the tested concentration and stored at -70 degrees C prior to their use. All drugs and investigational agents were tested over a range starting from a high concentration at or near the clinical Cmax and decreasing in half-log increments. If the clinical Cmax for an agent had not been determined, the highest concentration tested was 10 microM.
Cell Culture. All cells were maintained in an incubator at 37 degrees C and 5% CO2 with 95% humidity. The PDC lines were cultured according to standard operating procedures established by the NCI PDMR. Briefly, all PDCs were thawed and cultured in Matrigel-coated flasks prepared with a working solution of 1X Ham's F-12 nutrient mix, without supplementation (Invitrogen, Waltham, MA, cat. 11765054), 100 U/mL penicillin-streptomycin (Invitrogen, cat. 15140122), and 2.5% Matrigel (Corning Inc., Corning, NY, cat. 354248) for the first three passages. The 947758-054-R-J2-PDC line was cultured in 6B/Colon 1A media, which includes advanced DMEM/F-12 (Thermo Fisher Scientific, cat. 12634028), 10 mM HEPES (Thermo Fisher Scientific, cat. 15630080), 1X GlutaMAX supplement (Thermo Fisher Scientific, cat. 35050061), 0.1 mg/mL primocin (InvivoGen, cat. ant-pm-2), 10% defined fetal bovine serum, heat inactivated (HyClone Laboratories Inc., cat. SH30070.03HI), 1.25 mM N-Acetyl-L-cysteine (Sigma-Aldrich, cat. A9165), 10 mM nicotinamide (Sigma-Aldrich, cat. N0636), 1X B-27 supplement (Thermo Fisher Scientific, cat. 17504044), 1X N-2 supplement (Thermo Fisher Scientific, cat. 17502048), and 10 microM Y-27632 dihydrochloride (Tocris Bioscience, cat. 1254). The 876862-298-R-J1-PDC was cultured in 6E media, which includes all 6B/Colon 1A media components plus 50% L-WRN conditioned media (ATCC, cat. CRL-3276), 50 ng/mL recombinant human EGF recombinant protein (hEGF; Thermo Fisher Scientific, cat. PHG0311), 10 ng/mL recombinant human fibroblast growth factor 10 (hGFG-10; PeproTech, cat. 100-26), 1 ng/mL recombinant human fibroblast growth factor 2 (hFGF-2; PeproTech, cat. 100-18B), and 1 µM prostaglandin E2 (PGE2; Tocris, cat. 2296). The 227483-062-R1-J1-PDC line was cultured in Panc media, containing all 6E components except hFGF-2, with the addition of 500 nM SB-431542 (Selleckchem, cat. S1067) and 10 nM gastrin (Tocris, cat. 3006). […]
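Also: spheroids exposed to agents for seven days before readout.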

`C#Cc1c(F)ccc2cc(O)cc(-c3ncc4c(N5CC6CCC(C5)N6)nc(OCC56CCCN5CC(F)C6)nc4c3F)c12` (stereo unspecified): the viability, T/C was 76.7% and 87.4% (compound 0.0316 µM); 73.1% and 85.8% (compound 0.1 µM); 55.9% and 64.3% (compound 0.316 µM); 51.7% and 67% (compound 1 µM); 36.1% and 38.3% (compound 3.16 µM); 26.8% and 29.4% (compound 10 µM). Besides, the IC50 (curve of compound) is 881 nM and 1900 nM.

For `C=C(F)C(=O)N1CCN(c2nc(OCC3CCCN3C)nc3c2CCN(c2cccc4cccc(Cl)c24)C3)CC1CC#N` (stereo unspecified), the viability, T/C runs as follows: (compound 0.0316 µM) 31.6% and 42%; (compound 0.1 µM) 23.6% and 24.5%; (compound 0.316 µM) 19.6% and 21%; (compound 1 µM) 26.1% and 22.8%; (compound 3.16 µM) 11.2% and 15.2%; (compound 10 µM) 0.14%. Further, the IC50 (curve of compound) is less than 31.6 nM.

For `C=CC(=O)N1CCN(c2nc(=O)n(-c3c(C)ccnc3C(C)C)c3nc(-c4c(O)cccc4F)c(F)cc23)C(C)C1` (stereo unspecified), the viability, T/C runs as follows: (compound 0.0316 µM) 33% and 35.7%; (compound 0.1 µM) 27% and 28.4%; (compound 0.316 µM) 24.9% and 25.6%; (compound 1 µM) 27.6% and 25.6%; (compound 3.16 µM) 32.8% and 25.4%; (compound 10 µM) 25.2% and 30%. Moreover, the IC50 (curve of compound) was less than 31.6 nM.

Turning to `C=CC(=O)Nc1cc(Nc2nccc(-c3cn(C)c4ccccc34)n2)c(OC)cc1N(C)CCN(C)C`, the viability, T/C (compound 0.000949 µM) was 117% and 87.2%; the viability, T/C (compound 0.003 µM) was 106% and 102%; the viability, T/C (compound 0.00949 µM) was 83% and 85%; the viability, T/C (compound 0.03 µM) is 93.5% and 83.8%; the viability, T/C (compound 0.0949 µM) is 82.8% and 69%; the viability, T/C (compound 0.3 µM) was 74.9% and 72.9%. Moreover, the IC50 (curve of compound) is more than 300 nM.

In the case of `CC(C)CC(NC(=O)C(Cc1ccccc1)NC(=O)c1cnccn1)B(O)O` (stereo unspecified), the viability, T/C is 95.5% and 91.7% (compound 0.000949 µM); 64.7% and 73.9% (compound 0.003 µM); 16.9% and 26.7% (compound 0.00949 µM); 2.66% and 2.25% (compound 0.03 µM); 0.86% and 0.8% (compound 0.0949 µM); 2.88% and 1.33% (compound 0.3 µM). Moreover, the concentration for half-maximal inhibition (IC50) (curve of compound) was 4.28 nM and 5.36 nM.

Take `CC(CO)NC(=O)c1cc(-c2ccc(Cl)cc2)nn(-c2cnn(C)c2)c1=O` (stereo unspecified): the viability, T/C reads like this: (compound 0.0316 µM) 93.7% and 89.7%; (compound 0.1 µM) 96.4% and 110%; (compound 0.316 µM) 90.4% and 96.5%; (compound 1 µM) 106% and 108%; (compound 3.16 µM) 96.3% and 107%; (compound 10 µM) 78.1% and 83%. Also, the IC50 (curve of compound) was more than 10000 nM.

`CC(Nc1ccc2c(c1)OCCn1cc(N3C(=O)OCC3C(F)F)nc1-2)C(N)=O` (stereo unspecified): the viability, T/C (compound 0.0316 µM) was 76.1% and 62.1%; the viability, T/C (compound 0.1 µM) is 67.9% and 53.8%; the viability, T/C (compound 0.316 µM) was 46.1% and 36.7%; the viability, T/C (compound 1 µM) was 42.5% and 38.5%; the viability, T/C (compound 3.16 µM) is 34.2% and 31.7%; the viability, T/C (compound 10 µM) is 32% and 27.6%. The IC50 (curve of compound) was 308 nM and 113 nM.

For `CCCS(=O)(=O)Nc1ccc(F)c(C(=O)c2c[nH]c3ncc(-c4ccc(Cl)cc4)cc23)c1F`, the viability, T/C is 103% and 89.2% (compound 0.0316 µM); 100% and 86% (compound 0.1 µM); 128% and 114% (compound 0.316 µM); 147% and 152% (compound 1 µM); 169% and 165% (compound 3.16 µM); 137% and 149% (compound 10 µM). The IC50 (curve of compound) is more than 10000 nM.

For `CCN1CCN(Cc2ccc(Nc3ncc(F)c(-c4cc(F)c5nc(C)n(C(C)C)c5c4)n3)nc2)CC1`, the viability, T/C reads like this: (compound 0.00316 µM) 99.5% and 74%; (compound 0.01 µM) 84% and 78.8%; (compound 0.0316 µM) 87% and 73.9%; (compound 0.1 µM) 82.6% and 59.1%; (compound 0.316 µM) 80.8% and 66.4%; (compound 1 µM) 98.7% and 90.2%. Besides, where the note is “curve of compound”, the half-maximal inhibitory concentration (IC50) is more than 1000 nM.

For `CCc1c2c(nc3ccc(O)cc13)-c1cc3c(c(=O)n1C2)COC(=O)[C@]3(O)CC`, the viability, T/C (compound 0.00316 µM) is 45.8% and 52.3%; the viability, T/C (compound 0.01 µM) is 37% and 43.1%; the viability, T/C (compound 0.0316 µM) was 44% and 44.3%; the viability, T/C (compound 0.1 µM) is 47.2% and 45.5%; the viability, T/C (compound 0.316 µM) is 41.7% and 43.5%; the viability, T/C (compound 1 µM) was 19.9% and 18.4%. Besides, the concentration for half-maximal inhibition (IC50) (curve of compound) was less than 3.16 nM.

For the molecule `CNC(=O)c1ccc(Nc2nc(OC3CCCC3)c3c(-c4ccc5nc(C)oc5c4)c[nH]c3n2)c(OC)c1`, the viability, T/C runs as follows: (compound 0.0316 µM) 99.4% [middle of 12 runs]; (compound 0.1 µM) 93.4% [middle of 12 runs]; (compound 0.316 µM) 70.8% [middle of 12 runs]; (compound 1 µM) 68.3% [middle of 12 runs]; (compound 3.16 µM) 74.5% [middle of 12 runs]. The IC50 (compound alone, run of 08/15/2023) is more than 10000 nM.

Consider `COC1C=CCC(C)C(C)S(=O)(=O)NC(=O)c2ccc3c(c2)N(CC2CCC21)CC1(CCCc2cc(Cl)ccc21)CO3` (stereo unspecified), for which the viability, T/C is 102% and 113% (compound 0.0316 µM); 91.9% and 102% (compound 0.1 µM); 95.6% and 101% (compound 0.316 µM); 97.8% and 87.8% (compound 1 µM); 87.5% and 111% (compound 3.16 µM); 59.8% and 69.4% (compound 10 µM). Also, the IC50 (curve of compound) is more than 10000 nM.

`COc1c(OCCCN2CCOCC2)ccc2c3n(c(=NC(=O)c4cnc(N)nc4)nc12)CCN3`: the viability, T/C runs as follows: (compound 0.00316 µM) 78.6% and 87.6%; (compound 0.01 µM) 57.4% and 58.9%; (compound 0.0316 µM) 37.6% and 32.8%; (compound 0.1 µM) 33.2% and 29.1%; (compound 0.316 µM) 29.7% and 26%; (compound 1 µM) 32.4% and 33.2%. Further, the IC50 (curve of compound) was 15.4 nM and 14.8 nM.

As for `Cn1ncnc1[C@H]1c2n[nH]c(=O)c3cc(F)cc(c23)N[C@@H]1c1ccc(F)cc1`, the viability, T/C is, setting by setting: (compound 0.000316 µM) 86.9% and 103%; (compound 0.001 µM) 110% and 95.5%; (compound 0.00316 µM) 97% and 99.8%; (compound 0.01 µM) 101% and 87.8%; (compound 0.0316 µM) 91.4%; (compound 0.1 µM) 85% and 87.1%. For the same molecule, for the setting “curve of compound”, the IC50 was more than 100 nM.

Turning to `NC(=O)C(=Cn1cnc(-c2cc(C(F)(F)F)cc(C(F)(F)F)c2)n1)c1cncnc1`, the viability, T/C was 95.7% and 97.4% (compound 0.00949 µM); 103% and 84% (compound 0.03 µM); 86.1% and 81.5% (compound 0.0949 µM); 72.6% and 58.2% (compound 0.3 µM); 89.1% and 92.3% (compound 0.949 µM); 76.9% and 76.2% (compound 3 µM). Moreover, under “curve of compound”, the IC50 was more than 3000 nM.

Regarding `Nc1ccccc1NC(=O)c1ccc(CNC(=O)OCc2cccnc2)cc1`, the viability, T/C is 102% and 93.7% (compound 0.0316 µM); 129% and 108% (compound 0.1 µM); 144% and 139% (compound 0.316 µM); 106% and 104% (compound 1 µM); 78.5% and 92.5% (compound 3.16 µM); 86.9% and 81.8% (compound 10 µM). In addition, under “curve of compound”, the half-maximal inhibitory concentration (IC50) was more than 10000 nM.
